Reference: patent publication US9340554B2, “IRAK inhibitors and uses thereof” (Nimbus Iris, Inc., priority 2011, dated 2016)
Like-named read-outs stand apart in the source and are kept apart here.

Target: T1, IRAK4 (Homo sapiens, UniProt Q9NWZ3)
T1 construct: purchased CARNA Bioscience 09-145
T1 sequence (Q9NWZ3 1-460): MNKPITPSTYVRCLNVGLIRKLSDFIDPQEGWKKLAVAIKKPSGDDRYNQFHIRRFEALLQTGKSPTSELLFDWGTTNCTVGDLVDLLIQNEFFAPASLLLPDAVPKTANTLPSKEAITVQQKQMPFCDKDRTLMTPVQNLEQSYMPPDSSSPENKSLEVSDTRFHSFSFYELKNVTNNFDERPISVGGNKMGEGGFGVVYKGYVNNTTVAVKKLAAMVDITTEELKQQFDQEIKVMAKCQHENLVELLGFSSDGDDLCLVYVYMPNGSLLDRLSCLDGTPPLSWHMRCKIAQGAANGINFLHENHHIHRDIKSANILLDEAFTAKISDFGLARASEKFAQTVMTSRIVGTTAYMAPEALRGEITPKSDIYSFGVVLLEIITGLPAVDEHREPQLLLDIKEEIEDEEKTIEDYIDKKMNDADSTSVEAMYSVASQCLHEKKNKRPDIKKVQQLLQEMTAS
Test: IRAK-4 activity inhibition assay (Caliper, Peptide 8, 37 μM ATP)
Type: biochemical
Settings: 28° C. 40 minutes

[1] = 3.5 nM IRAK4, 1.5 μM Peptide 8, 37 μM ATP, read-out: IRAK-4 activity inhibition IC50

| SMILES | IC50 [1] | IC50 (IRAK-4 activity inhibition IC50, 3.5 nM IRAK4, 1.5 μM Peptide 8, 37 μM ATP) |
| --- | --- | --- |
| CN(CC(=O)N1CCOCC1)[C@H]1CC[C@H](Nc2ncnc3sc4c(c23)CCC4)CC1 [Compound I-130, 2-[methyl[4-([7-thia-9,11-diazatricyclo[6.4.0.0[2,6]]dodeca-1(12),2(6),8,10-tetraen-12-yl]amino)cyclohexyl]amino]-1-(morpholin-4-yl)ethan-1-one] | < 5 µM |  |
| CN(C)C(=O)CN(C)[C@H]1CC[C@H](Nc2ncnc3sc4c(c23)CCC4)CC1 [Compound I-131, N,N-dimethyl-2-[methyl[4-([7-thia-9,11-diazatricyclo[6.4.0.0[2,6]]dodeca-1(12),2(6),8,10-tetraen-12-yl]amino)cyclohexyl]amino]acetamide] | < 5 µM |  |
| CN(C1CCOCC1)[C@H]1CC[C@H](Nc2ncnc3sc4c(c23)CCC4)CC1 [Compound I-132, 1-N-methyl-1-N-(oxan-4-yl)-4-N-[7-thia-9,11-diazatricyclo[6.4.0.0[2,6]]dodeca-1(8),2(6),9,11-tetraen-12-yl]cyclohexane-1,4-diamine] | < 5 µM |  |
| O=C(CN[C@H]1CC[C@H](Nc2ncnc3sc4c(c23)CCC4)CC1)N1CCCC1 [Compound I-134, trans-1-(pyrrolidin-1-yl)-2-[[4-([7-thia-9,11-diazatricyclo[6.4.0.0[2,6]]dodeca-1(8),2(6),9,11-tetraen-12-yl]amino)cyclohexyl]amino]ethan-1-one] | < 5 µM |  |
| O=C(CN[C@H]1CC[C@H](Oc2ncnc3sc4c(c23)CCC4)CC1)N1CCCC1 [Compound I-135, trans-1-(pyrrolidin-1-yl)-2-[(4-[7-thia-9,11-diazatricyclo[6.4.0.0[2,6]]dodeca-1(8),2(6),9,11-tetraen-12-yloxy]cyclohexyl)amino]ethan-1-one] | < 5 µM |  |
| O=C(CN(CC(=O)N1CCCC1)[C@H]1CC[C@H](Nc2ncnc3sc4c(c23)CCC4)CC1)N1CCCC1 [Compound I-136, trans-2-[[2-oxo-2-(pyrrolidin-1-yl)ethyl][4-([7-thia-9,11-diazatricyclo[6.4.0.0[2,6]]dodeca-1(8),2(6),9,11-tetraen-12-yl]amino)cyclohexyl]amino]-1-(pyrrolidin-1-yl)ethan-1-one] | 5 to 20 µM |  |
| O=C(CN(CC(=O)N1CCCC1)[C@H]1CC[C@H](Oc2ncnc3sc4c(c23)CCC4)CC1)N1CCCC1 [Compound I-137, trans-2-[[2-oxo-2-(pyrrolidin-1-yl)ethyl](4-[7-thia-9,11-diazatricyclo[6.4.0.0[2,6]]dodeca-1(8),2(6),9,11-tetraen-12-yloxy]cyclohexyl)amino]-1-(pyrrolidin-1-yl)ethan-1-one] | 5 to 20 µM |  |
| FC(F)(F)CN[C@H]1CC[C@H](Nc2ncnc3sc4c(c23)CCC4)CC1 [Compound I-138, 1-N-[7-thia-9,11-diazatricyclo[6.4.0.0^[2,6]]dodeca-1(8),2(6),9,11-tetraen-12-yl]-4-N-(2,2,2-trifluoroethyl)cyclohexane-1,4-diamine] | 5 to 20 µM |  |
| C[N+](C)(C)[C@H]1CC[C@H](Nc2ncnc3sc4c(c23)CCC4)CC1 [Compound I-139, (1r,4r)-4-((6,7-dihydro-5H-cyclopenta[4,5]thieno[2,3-d]pyrimidin-4-yl)amino)-N,N,N-trimethylcyclohexanaminium iodide] |  | 20 to 50 µM |
| c1nc(OCCN2CCNCC2)c2c3c(sc2n1)CCC3 [Compound I-140, 4-(2-(piperazin-1-yl)ethoxy)-6,7-dihydro-5H-cyclopenta[4,5]thieno[2,3-d]pyrimidine] | 20 to 50 µM |  |
| CN(C)CC1CC(Oc2ncnc3sc4c(c23)CCC4)C1 (stereo not drawn) [Compound I-141, 1-(3-((6,7-dihydro-5H-cyclopenta[4,5]thieno[2,3-d]pyrimidin-4-yl)oxy)cyclobutyl)-N,N-dimethylmethanamine] | 5 to 20 µM |  |
| c1nc(N[C@H]2CC[C@H](N3CCCC3)CC2)c2c3c(sc2n1)CCC3 [Compound I-142, N-((1r,4r)-4-(pyrrolidin-1-yl)cyclohexyl)-6,7-dihydro-5H-cyclopenta[4,5]thieno[2,3-d]pyrimidin-4-amine] | < 5 µM |  |
| c1nc(N[C@H]2CC[C@H](N3CCCCC3)CC2)c2c3c(sc2n1)CCC3 [Compound I-143, N-((1r,4r)-4-(piperidin-1-yl)cyclohexyl)-6,7-dihydro-5H-cyclopenta[4,5]thieno[2,3-d]pyrimidin-4-amine] | < 5 µM |  |
| CN(C)[C@H]1CC[C@H](N(C)c2ncnc3sc4c(c23)CCC4)CC1 [Compound I-144, (1r,4r)-N1-(6,7-dihydro-5H-cyclopenta[4,5]thieno[2,3-d]pyrimidin-4-yl)-N1,N4,N4-trimethylcyclohexane-1,4-diamine] | < 5 µM |  |
| OCC(CO)Nc1ncnc2sc3c(c12)CCC3 [Compound I-145] | 20 to 50 µM |  |
| CN[C@H]1CC[C@H](N(C)c2ncnc3sc4c(c23)CCC4)CC1 [Compound I-146, (1r,4r)-N1-(6,7-dihydro-5H-cyclopenta[4,5]thieno[2,3-d]pyrimidin-4-yl)-N1,N4-dimethylcyclohexane-1,4-diamine] | < 5 µM |  |
| c1nc(NCCN2CCNCC2)c2c3c(sc2n1)CCC3 [Compound I-147, N-(2-(piperazin-1-yl)ethyl)-6,7-dihydro-5H-cyclopenta[4,5]thieno[2,3-d]pyrimidin-4-amine] | > 50 µM |  |

| SMILES | IC50 [1] | IC50 (IRAK-4 activity inhibition IC50, 3.5 nM IRAK4, 1.5 μM Peptide 8, 37 μM ATP) |
| --- | --- | --- |
| CN(C)[C@H]1CC[C@H](COc2ncnc3sc4c(c23)CCC4)CC1 [Compound I-148, (1r,4r)-4-(((6,7-dihydro-5H-cyclopenta[4,5]thieno[2,3-d]pyrimidin-4-yl)oxy)methyl)-N,N-dimethylcyclohexanamine] | 20 to 50 µM |  |
| c1nc(N[C@H]2CC[C@H](N3CCOCC3)CC2)c2c3c(sc2n1)CCC3 [Compound I-149, N-((1r,4r)-4-morpholinocyclohexyl)-6,7-dihydro-5H-cyclopenta[4,5]thieno[2,3-d]pyrimidin-4-amine] | < 5 µM |  |
| CN(C)CCN1CCN(c2ncnc3sc4c(c23)CCC4)CC1 [Compound I-150, 2-(4-(6,7-dihydro-5H-cyclopenta[4,5]thieno[2,3-d]pyrimidin-4-yl)piperazin-1-yl)-N,N-dimethylethanamine] | 20 to 50 µM |  |
| CN(Cc1ccccc1)[C@H]1CC[C@H](Nc2ncnc3sc4c(c23)CCC4)CC1 [Compound I-151, (1r,4r)-N1-benzyl-N4-(6,7-dihydro-5H-cyclopenta[4,5]thieno[2,3-d]pyrimidin-4-yl)-N1-methylcyclohexane-1,4-diamine] | < 5 µM |  |
| C[C@@H](Nc1ncnc2sc3c(c12)CCC3)C(=O)O [Compound I-153] | > 50 µM |  |
| N[C@H]1CC[C@@H](Nc2ncnc3sc4c(c23)CCC4)CC1 [Compound I-154, (1s,4s)-N1-(6,7-dihydro-5H-cyclopenta[4,5]thieno[2,3-d]pyrimidin-4-yl)cyclohexane-1,4-diamine] | 5 to 20 µM |  |
| CN[C@H]1CC[C@@H](Nc2ncnc3sc4c(c23)CCC4)CC1 [Compound I-156, (1s,4s)-1-N-methyl-4-N-[7-thia-9,11-diazatricyclo[6.4.0.0^[2,6]]dodeca-1(12),2(6),8,10-tetraen-12-yl]cyclohexane-1,4-diamine] | 20 to 50 µM |  |
| CC(C)N[C@H]1CC[C@H](Nc2ncnc3sc4c(c23)CCC4)CC1 [Compound I-157, 1-N-(propan-2-yl)-4-N-[7-thia-9,11-diazatricyclo[6.4.0.0^[2,6]]dodeca-1(8),2(6),9,11-tetraen-12-yl]cyclohexane-1,4-diamine] | < 5 µM |  |
| c1nc(N[C@H]2CC[C@H](N3CCC3)CC2)c2c3c(sc2n1)CCC3 [Compound I-158, N-[4-(azetidin-1-yl)cyclohexyl]-7-thia-9,11-diazatricyclo[6.4.0.0^[2,6]]dodeca-1(8),2(6),9,11-tetraen-12-amine] | < 5 µM |  |
| c1nc(N[C@H]2CC[C@@H](N3CCC3)CC2)c2c3c(sc2n1)CCC3 [Compound I-159, N-((1s,4s)-4-(azetidin-1-yl)cyclohexyl)-6,7-dihydro-5H-cyclopenta[4,5]thieno[2,3-d]pyrimidin-4-amine] | 20 to 50 µM |  |
| c1nc(N[C@H]2CC[C@@H](N3CCOCC3)CC2)c2c3c(sc2n1)CCC3 [Compound I-160, N-((1s,4s)-4-morpholinocyclohexyl)-6,7-dihydro-5H-cyclopenta[4,5]thieno[2,3-d]pyrimidin-4-amine] | 5 to 20 µM |  |
| CC(C)N[C@H]1CC[C@@H](Nc2ncnc3sc4c(c23)CCC4)CC1 [Compound I-161] | > 50 µM |  |
| CN(Cc1ccncc1)[C@H]1CC[C@H](Nc2ncnc3sc4c(c23)CCC4)CC1 [Compound I-162] | < 5 µM |  |
| CN(Cc1cccnc1)[C@H]1CC[C@H](Nc2ncnc3sc4c(c23)CCC4)CC1 [Compound I-163, 1-N-methyl-1-N-(pyridin-3-ylmethyl)-4-N-[7-thia-9,11-diazatricyclo[6.4.0.0^[2,6]]dodeca-1(12),2(6),8,10-tetraen-12-yl]cyclohexane-1,4-diamine] | < 5 µM |  |
| CN(Cc1ccc(C(N)=O)cc1)[C@H]1CC[C@H](Nc2ncnc3sc4c(c23)CCC4)CC1 [Compound I-164, 4-([methyl[4-([7-thia-9,11-diazatricyclo[6.4.0.0^[2,6]]dodeca-1(8),2(6),9,11-tetraen-12-yl]amino)cyclohexyl]amino]methyl)benzamide] | < 5 µM |  |
| CN(Cc1cccc(CO)c1)[C@H]1CC[C@H](Nc2ncnc3sc4c(c23)CCC4)CC1 [Compound I-165, [3-([methyl[4-([7-thia-9,11-diazatricyclo[6.4.0.0^[2,6]]dodeca-1(8),2(6),9,11-tetraen-12-yl]amino)cyclohexyl]amino]methyl)phenyl]methanol] | < 5 µM |  |
